Columns and labels:
[1] = system: mouse primary hippocampal neurons; experiment: Dendrite and spine analysis in E18 mouse primary hippocampal neurons; assay type: cell-based; settings: 5 µM, 48 h
Procedure: Primary neuronal cell culture was performed based on a protocol approved by the Institutional Animal Care and Use Committee (IACUC) of the University of Wisconsin-Milwaukee, Milwaukee, WI-53211, and by the guidelines set by the National Institute of Health. Embryonic day 18 (E18) fetuses were harvested, and hippocampal tissue was dissected from brains and then processed for single cell culture in poly-D-lysine-coated plates, as discussed elsewhere. Neuronal cells were maintained with B-27^TM-plus-supplemented complete neurobasal media for 7–10 days until fully differentiated. After that, the treatment with JRM-28 was performed. […]
For counting spine density, dissociated E18 hippocampal neurons maintained 18 days in vitro were stained with Alexa-647 conjugated phalloidin (Cat #A22287) together with MAP2. Only densely stained neurons (>20 spines every 10 µm dendrite) were counted. The total length of each dendrite was measured at 400× magnification using an Accu-Scope EXC-500 microscope (NY, USA). The number of spines on the dendrites was counted under oil immersion. As some of the spines were hidden under the dendrite, only spines that protruded laterally from the shafts of the dendrites into the surrounding area of clear neuropil were counted. […]

[2] = system: mouse primary hippocampal neurons; experiment: NMDA/AMPA-sensitive calcium influx assay in mouse primary hippocampal neurons; assay type: cell-based
Procedure: Mouse primary hippocampal neurons and AD neurons were loaded with Fluo4-fluorescence conjugated calcium dye (Invitrogen Molecular Probes, Cat #F10471) and incubated at 37 °C for 60 min, as described before. Briefly, fluorescence excitation and emission spectra were recorded in a Perkin–Elmer Victor X2 Fluorimetric Spectrometer (Versiti Blood Center, Wauwatosa, WI, USA) in the presence of 50 μM NMDA and AMPA solutions. The recording was performed with 100 repeats at 0.1 ms intervals. The oscillogram was generated with the help of Parkin Elmer 2030 software that was connected to the Victor X2 calcium recorder unit. The real-time calcium noise graph was generated as a kinetic chart plotted on a linear scale.

`CN(C(=O)CC(O)/C=C/CCSS(=O)(=O)CC/C=C/C(O)CC(=O)N(C)c1ccccc1)c1ccccc1` (stereo not drawn) [JRM-28, S-((E)-5-hydroxy-7-(methyl(phenyl)amino)-7-oxohept-3-en-1-yl) (E)-5-hydroxy-7-(methyl(phenyl)amino)-7-oxohept-3-ene-1-sulfonothioate] was tested, and the “spine maturation (head-to-shaft ratio >0.6)” value ([1]; 18 DIV) was “significantly induced the maturation of spines”, the MAP2-ir basal dendrites ([1]; 8 days in vitro) was “significantly upregulated the synthesis of MAP2-ir basal dendrites” and the AMPA-sensitive calcium influx ([2]; 5 µM, 24 h) was “strongly upregulated”. For the same compound, the NMDA-sensitive calcium influx ([2]; 5 µM, 24 h) was “strongly upregulated”, the “optimum dose for the calcium influx” value ([2]; 2, 5, and 10 µM tested) was 5 µM and the “NMDA- and AMPA-driven calcium influx after creb siRNA” value ([2]; creb knocked down by creb siRNA) was “significantly abrogate”.

Source: PMC11640089, “JRM-28, a Novel HDAC2 Inhibitor, Upregulates Plasticity-Associated Proteins in Hippocampal Neurons and Enhances Morphological Plasticity via Activation of CREB: Implications for Alzheimer’s Disease” (Cells, 2024)
